Measurements from US20210380548A1, “Fused [1,2,4]Thiadiazine Derivatives Which Act as KAT Inhibitors of the MYST Family” (CTxT Pty Limited, priority 2017, published 2021).

Tests used:
MOF-KAT8 [1] = molecular target: T1, MOF-KAT8 (Homo sapiens, UniProt Q9H7Z6); assay: Acetyltransferase biochemical assay (AlphaScreen), KAT8; conditions: Table 4 (MOF-KAT8); 0.4 μM Acetyl coenzyme A, histone H4, 20 nM enzyme
T1 sequence (Q9H7Z6 177-447): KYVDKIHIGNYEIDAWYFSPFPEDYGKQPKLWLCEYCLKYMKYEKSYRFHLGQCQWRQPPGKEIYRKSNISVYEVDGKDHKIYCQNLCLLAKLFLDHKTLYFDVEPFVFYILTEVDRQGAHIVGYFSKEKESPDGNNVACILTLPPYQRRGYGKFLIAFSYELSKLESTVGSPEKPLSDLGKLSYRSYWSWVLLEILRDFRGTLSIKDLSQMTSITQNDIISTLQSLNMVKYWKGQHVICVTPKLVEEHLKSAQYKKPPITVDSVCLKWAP

HBO-KAT7 [2] = molecular target: T2, HBO-KAT7 (Homo sapiens, UniProt O95251); assay: Revised Acetyltransferase Biochemical Assay, KAT7; conditions: Table 9 (HBO-KAT7), 1 μM Acetyl coenzyme A
T2 construct: encoding amino acid residues 325 to 611 (Uniprot 095251-1) of human KAT7; made in house; host or cells: E. coli BL21 DE3 RIL
T2 sequence (O95251 with tags, fused parts or gaps): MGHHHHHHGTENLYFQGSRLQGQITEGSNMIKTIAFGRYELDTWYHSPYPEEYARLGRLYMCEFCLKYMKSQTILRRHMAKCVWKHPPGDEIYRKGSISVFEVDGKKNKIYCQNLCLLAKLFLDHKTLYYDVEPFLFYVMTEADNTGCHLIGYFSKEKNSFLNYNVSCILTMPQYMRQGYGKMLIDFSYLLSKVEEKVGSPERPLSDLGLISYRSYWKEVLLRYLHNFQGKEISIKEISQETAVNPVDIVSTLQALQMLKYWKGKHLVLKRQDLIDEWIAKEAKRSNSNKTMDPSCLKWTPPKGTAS

[3] = test system: histone H2A.Z Lysine 7 acetylation (TIP60 mediated) in U2OS cells; assay: H2A.Z Lysine 7 Acetylation Biomarker Assay (384-well, U2OS); format: cell-based; conditions: Homo sapiens, serum free medium, 24 hours incubation
Procedure: Compounds may be tested for their ability to inhibit the histone H2A.Z Lysine 7 acetylation marker (which is TIP60 mediated) in the following assay:
The cell line U2OS was seeded at a density of 3,000 cells per well in 384-well optical quality tissue culture plates in RPMI medium supplemented with 10% foetal bovine serum and 10 mM Hepes. The cells were allowed to adhere for 24 hours under standard culture conditions (37 degree Celsius, 5% CO2). At the end of this period the cells were washed with serum free medium. […] After incubation for 24 hours, the cells were fixed with 4% formaldehyde in PBS for 15 minutes at room temperature, washed with phosphate buffer saline and blocked with blocking buffer containing 0.2% TritonX100 and 2% BSA. Anti-H2A.ZK7ac specific antibody (Abcam) in blocking buffer was added and incubated overnight at 4 degree Celsius. After washing, a secondary antibody labelled with AlexaFluor 488 dye (ThermoFisher) and Hoechst 33342 (1 μg/mL, Life Technologies) were added for 2 hours incubation at room temperature. Plates were washed and read on a PerkinElmer Opera HCS high content imaging platform. Using a Columbus image analysis pipeline, individual nuclei were located by Hoechst 33342 stain and the acetylation level was calculated from the AlexaFluor 488-related intensity in the same area. The resulting mean intensity per cell was converted to percent inhibition relative to controls on the same plate and the data fitted against a four-parameter logistic model to determine the 50% inhibitory concentration (IC50).

TIP60-KAT5 = molecular target: T3, TIP60-KAT5 (Homo sapiens, UniProt Q92993); assay: Revised Acetyltransferase Biochemical Assay, KAT5; conditions: 10 nM KAT5, 1 μM AcCoA, 100 nM histone H4, 90 min
T3 construct: encoding amino acid residues 2 to 461 (Uniprot Q92993-2) of human KAT5 isoform; made in house; host or cells: E. coli BL21 DE3
T3 sequence (Q92993 2-461 isoform Q92993-2): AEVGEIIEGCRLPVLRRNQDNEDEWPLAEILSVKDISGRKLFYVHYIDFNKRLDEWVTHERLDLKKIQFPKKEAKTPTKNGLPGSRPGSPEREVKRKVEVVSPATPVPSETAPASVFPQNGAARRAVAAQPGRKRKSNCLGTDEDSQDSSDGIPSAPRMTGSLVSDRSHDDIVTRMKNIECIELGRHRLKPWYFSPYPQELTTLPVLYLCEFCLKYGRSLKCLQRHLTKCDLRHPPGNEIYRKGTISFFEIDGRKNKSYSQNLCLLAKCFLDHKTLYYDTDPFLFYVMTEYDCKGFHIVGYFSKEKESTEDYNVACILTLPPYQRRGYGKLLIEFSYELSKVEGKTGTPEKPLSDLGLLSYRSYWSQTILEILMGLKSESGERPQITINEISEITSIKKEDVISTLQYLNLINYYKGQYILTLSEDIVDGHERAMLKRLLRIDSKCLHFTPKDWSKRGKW

MOZ-KAT6A = molecular target: T4, MOZ-KAT6A (Homo sapiens, UniProt Q92794, A567V); assay: Revised Acetyltransferase Biochemical Assay, KAT6A; conditions: Table 8 (MOZ-KAT6A), 1 μM Acetyl coenzyme A
T4 construct: encoding amino acid residues 507 to 778 (Uniprot Q92794-1) of human KAT6A; made in house; host or cells: E. coli BL21 DE3
T4 sequence (Q92794 507-778 A567V limits assumed): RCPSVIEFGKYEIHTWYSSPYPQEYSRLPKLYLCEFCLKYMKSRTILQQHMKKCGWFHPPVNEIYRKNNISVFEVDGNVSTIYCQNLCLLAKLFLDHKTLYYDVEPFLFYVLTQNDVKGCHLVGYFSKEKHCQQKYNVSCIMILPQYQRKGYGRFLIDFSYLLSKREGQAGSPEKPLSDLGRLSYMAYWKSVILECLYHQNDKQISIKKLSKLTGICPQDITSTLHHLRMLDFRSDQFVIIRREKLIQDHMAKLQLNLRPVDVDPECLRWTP

HBO-KAT7 [4] = molecular target: T2, HBO-KAT7; assay: Acetyltransferase biochemical assay (AlphaScreen), KAT7; conditions: Table 3 (HBO-KAT7); 0.4 μM Acetyl coenzyme A, histone H3.1, 40 nM enzyme
MOF-KAT8 [5] = molecular target: T1, MOF-KAT8; assay: Revised Acetyltransferase Biochemical Assay, KAT8

Row | SMILES | IC50 (MOF-KAT8 [1]) [nM] | IC50 (HBO-KAT7 [2]) [nM] | IC50 [3] [nM] | IC50 (TIP60-KAT5) [nM] | IC50 (MOZ-KAT6A) [nM] | IC50 (HBO-KAT7 [4]) [nM] | IC50 (MOF-KAT8 [5]) [nM]
1 | COc1ccccc1C(CNC(=O)C1=Nc2ccc(Cl)cc2S(=O)(=O)N1)c1ncco1 (stereo not drawn) [Example 178] | 106000 | 112 | 20500 | 852 | 21 | 571 | 61000
2 | CNC(=O)CCCOC(=O)C(CNC(=O)C1=Nc2ccc(I)cc2S(=O)(=O)N1)c1ccccc1 (stereo not drawn) [Example 180] | 77000 | 557 | 37500 | 249 | 229 | – | –
3 | CNC(=O)CCOC(=O)C(CNC(=O)C1=Nc2ccc(I)cc2S(=O)(=O)N1)c1ccccc1 (stereo not drawn) [Example 183] | 36300 | 718 | 33200 | 68 | 44 | – | 30500
4 | Cc1cccc(C(CNC(=O)C2=Nc3ccc(Cl)cc3S(=O)(=O)N2)c2ncco2)c1 (stereo not drawn) [Example 234, 7-chloro-N-(2-(oxazol-2-yl)-2-(m-tolyl)ethyl)-2H-benzo[e][1,2,4]thiadiazine-3-carboxamide 1,1-dioxide] | 57300 | 89 | 6150 | 1370 | 72 | – | 23600
5 | O=C(NCC(c1ncco1)c1ccccc1F)C1=Nc2ccc(Cl)cc2S(=O)(=O)N1 (stereo not drawn) [Example 236, 7-chloro-N-(2-(2-fluorophenyl)-2-(oxazol-2-yl)ethyl)-2H-benzo[e][1,2,4]thiadiazine-3-carboxamide 1,1-dioxide] | 20200 | 73 | 7850 | 113 | 10 | – | 19600

These reach a lower IC50 (MOF-KAT8 [1]). Values come first.

Row | IC50 (MOF-KAT8 [1]) [nM] | IC50 (HBO-KAT7 [2]) [nM] | IC50 [3] [nM] | IC50 (TIP60-KAT5) [nM] | IC50 (MOZ-KAT6A) [nM] | IC50 (HBO-KAT7 [4]) [nM] | IC50 (MOF-KAT8 [5]) [nM] | SMILES
6 | 9220 | 114 | 8280 | 99 | 8 | – | 10200 | COc1ccccc1C(CNC(=O)C1=Nc2ccc(I)cc2S(=O)(=O)N1)c1ncco1 (stereo not drawn) [Example 184, 7-iodo-N-(2-(2-methoxyphenyl)-2-(oxazol-2-yl)ethyl)-2H-benzo[e][1,2,4]thiadiazine-3-carboxamide 1,1-dioxide]
7 | 6590 | 115 | 1080 | 34 | 9 | – | 3230 | O=C(NCC(c1ncco1)c1ccccc1F)C1=Nc2ccc(I)cc2S(=O)(=O)N1 (stereo not drawn) [Example 235, N-(2-(2-fluorophenyl)-2-(oxazol-2-yl)ethyl)-7-iodo-2H-benzo[e][1,2,4]thiadiazine-3-carboxamide 1,1-dioxide]
